The values that follow come from patent US20230203023A1, “SALT AND CRYSTAL FORMS OF GLP-1R AGONISTS AND USES THEREOF” (QILU REGOR THERAPEUTICS INC., priority 2020, published 2023).

What all share (assay type): physicochemical
Data set [1] in a line: Solid stability evaluation (I/II), XRPD and HPLC. As to conditions: for Chemical stability compared with free form: 60° C. 1 day, 25° C./60% RH or 40° C./75% RH 1 week. Here is the method:
To evaluate the physical and chemical stability of 1:1 Compound I Tris Salt (Form A) and amorphous free form, samples were stored under the conditions of 60° C. for 1 day and 25° C./60% RH or 40° C./75% RH for 1 week, respectively.
To evaluate the physical and chemical stability of 1:1 Compound II Citrate Salt (Form A), 1:1 Compound II Tris Salt (Form B) and freeform, samples were stored under the conditions of 60° C. for 1 day and 25° C./60% RH or 40° C./75% RH for 1 week, respectively.

Another data set in a line: Hygroscopicity, DVS test. As to conditions: for Hygroscopicity: according to Chinese Pharmacopeia 2015. Here is the method: DVS was measured via a SMS (Surface Measurement Systems) DVS Intrinsic. The relative humidity at 25° C. were calibrated against deliquescence point of LiCl, Mg(NO3)2 and KCl.
To investigate the solid form stability as a function of humidity, DVS isotherm plot of 1:1 Compound I Tris Salt (Form A) was collected between 0% RH and 95% RH at 25° C. […] Considering the 1:1 Compound I Tris Salt (Form A) is a hydrate and may dehydrate under low humidity, DVS was also tested at 20 and 30° C. to further confirm the suitable storage condition and avoid dehydration. […] Combing the VH-XRPD and DVS results: the condition of 20-30° C. and relative humidity ≥40% RH is suitable for the storage of 1:1 Compound I Tris Salt (Form A).
To investigate the solid form stability as a function of humidity, DVS isotherm plots of 1:1 Compound II Citrate Salt (Form A) and 1:1 Compound II Tris Salt (Form B) were collected at 25° C. between 0% RH and 95% RH. […] The water uptake increased by 0.97% from 10% to 80% RH and a platform was observed.

A short description of data set [2]: VH-XRPD, dehydration of the hydrate. Here is the method: VH-XRPD and single crystal structure determination were performed for 1:1 Compound I Tris Salt (Form A) and it was identified as a monohydrate, which would dehydrate at the ≤30%RH condition.
VH-XRPD was performed for a 1:1 Compound II tris salt (Form B) sample for further identification. […] Combining the characterization results, it is believe that 1:1 Compound II tris salt (Form B) is a hydrate, which would dehydrate below ≤10% RH.

A further data set can be described thus: Polymorph screening. As to conditions: solution crystallization and solid transition methods. Here is the method:
Polymorph screening experiments on 1:1 Compound I Tris Salt (Form A) were performed under vairous conditions using different solution crystallization or solid transition methods, including anti-solvent addition, reverse anti-solvent addition, slow evaporation, slow cooling, slurry at RT, slurry at 50° C., slurry cycling 5-50° C., vapor-solid diffusion, vapor-solution diffusion, polymer induced crystallization, and grinding.

Structures are written as SMILES. Structures can show the parent of a compound that is named as a salt. Marks after values point to notes of the source that are not given here. Some results are limits rather than exact numbers.

With `N#Cc1ccc(COc2cccc(C3=CCN(Cc4nc5ccc(C(=O)O)cc5n4C[C@@H]4CCO4)CC3)n2)c(F)c1` [Citrate salt Form A, (S)-2-((6-((4-cyano-2-fluorobenzyl)oxy)-3′,6′-dihydro-[2,4′-bipyridin]-1′(2′H)-yl)methyl)-1-(oxetan-2-ylmethyl)-1H-benzo[d]imidazole-6-carboxylic acid], the Form change entry in data set [1] (25° C./60% RH (open), 1 week) was “No”; in data set [1] (40° C./75% RH (open), 1 week) it was “No”; in data set [1] (60° C. (capped), 1 day), “No”; in data set [1] (Initial), “No”. The Observation result in data set [1] (25° C./60% RH (open), 1 week) is recorded as “White”; in data set [1] (40° C./75% RH (open), 1 week), “White”; in data set [1] (60° C. (capped), 1 day), “White”; in data set [1] (Initial) it was “White”. Besides, the “Purity (area %)” value in data set [1] (25° C./60% RH (open), 1 week) is recorded as 97.58 area %; in data set [1] (40° C./75% RH (open), 1 week), 97.14 area %; in data set [1] (60° C. (capped), 1 day), 97.50 area %; in data set [1] (Initial), 97.73 area %. Further, the “Chemical stability compared with free form” value in data set [1] is listed as “better chemical stability”. In addition, in the data set “Hygroscopicity, DVS test” (25° C.), the “Form change after DVS test” value is reported as “No”. The “Water uptake (80% RH)” value in the data set “Hygroscopicity, DVS test” (25° C.) is listed as 0.71%; in “Hygroscopicity, DVS test” (25° C., listed as 1:1 Compound II Citrate Salt (Form A)), 0.71%. In “Hygroscopicity, DVS test” (25° C.), the Hygroscopicity entry is given as “Slightly hygroscopic”.
Consider `O=C(O)c1ccc2nc(CN3CC=C(c4cccc(OCc5ccc(Cl)cc5F)c4)CC3)n(C[C@@H]3CCO3)c2c1` [Tris salt Form A, (S)-2-((4-(3-((4-chloro-2-fluorobenzyl)-oxy)phenyl)-3,6-dihydropyridin-1(2H)-yl)methyl)-1-(oxetan-2-ylmethyl)-1H-benzo[d]-imidazole-6-carboxylic acid], for which the “Purity (area %)” value in data set [1] (25° C./60% RH (open), 1 week) was 94.70 area %; in data set [1] (40° C./75% RH (open), 1 week), 95.40 area %; in data set [1] (60° C. (capped), 1 day) it was 93.49 area %; in data set [1] (Initial) it was 95.46 area %. For the same molecule, the Form change result in data set [1] (40° C./75% RH (open), 1 week) is recorded as “No”. Further, the Observation entry in data set [1] (40° C./75% RH (open), 1 week) is reported as “Yellowish”. In data set [1], the “Chemical stability compared with free form” value is recorded as “better chemical stability”. Moreover, the “Form change after DVS test” value in “Hygroscopicity, DVS test” (20° C.) is “No”; in the data set “Hygroscopicity, DVS test” (25° C.), “No”; in “Hygroscopicity, DVS test” (25° C., listed as 1:1 Compound I Tris Salt (Form A)), “No form change”; in “Hygroscopicity, DVS test” (30° C.), “No”. For the same molecule, the “Water uptake (80% RH)” value in “Hygroscopicity, DVS test” (20° C.) turned out to be 2.24%; in the data set “Hygroscopicity, DVS test” (25° C.) it was 2.77%; in “Hygroscopicity, DVS test” (30° C.), 2.99%. The Hygroscopicity result is on record as “Hygroscopic” in “Hygroscopicity, DVS test” (20° C.); “Hygroscopic” in “Hygroscopicity, DVS test” (25° C.); “Hygroscopic” in the data set “Hygroscopicity, DVS test” (30° C.). Further, in data set [2], the “Relative humidity at which the hydrate would dehydrate” value is given as no more than 30 % RH. Also, the “Form change in polymorph screening” value in the data set “Polymorph screening” is “did not change under most of the test conditions”.
On to `N#Cc1ccc(COc2cccc(C3=CCN(Cc4nc5ccc(C(=O)O)cc5n4C[C@@H]4CCO4)CC3)n2)c(F)c1` [Tris salt Form B, (S)-2-((6-((4-cyano-2-fluorobenzyl)oxy)-3′,6′-dihydro-[2,4′-bipyridin]-1′(2′H)-yl)methyl)-1-(oxetan-2-ylmethyl)-1H-benzo[d]imidazole-6-carboxylic acid], for which, in data set [1] (25° C./60% RH (open), 1 week), the Form change result is “No”, the Observation entry is listed as “Yellow” and the “Purity (area %)” value is given as 93.86 area %. In data set [1] (40° C./75% RH (open), 1 week), the Form change entry is “No”, the Observation result is given as “Yellow” and the “Purity (area %)” value turned out to be 94.13 area %. The “Chemical stability compared with free form” value in data set [1] is reported as “better chemical stability”. Also, in data set [1] (60° C. (capped), 1 day), the Form change entry is given as “No”, the Observation entry was “Yellow” and the “Purity (area %)” value was determined as 92.98 area %. Further, in data set [1] (Initial), the Form change result is recorded as “No”, the Observation result is given as “Yellowish” and the “Purity (area %)” value was 94.56 area %. For the same molecule, in the data set “Hygroscopicity, DVS test” (25° C.), the “Form change after DVS test” value was “No”, the Hygroscopicity result is on record as “Slightly hygroscopic” and the “Water uptake from 10% RH to 80% RH” value was determined as 0.97%*. Also, the “Water uptake increase between 0% and 10% RH” value in the data set “Hygroscopicity, DVS test” (25° C., cycle 2 sorption curve) amounted to 2.47%. Further, in “Hygroscopicity, DVS test” (25° C., listed as 1:1 Compound II Tris Salt (Form B)), the “Water uptake from 10% RH to 80% RH” value is 0.97%. Besides, in data set [2], the “Relative humidity at which the hydrate would dehydrate” value is reported as no more than 10 % RH.
